According to patent EP0553673A1 (priority 1992, dated 1993):

Tested on: Krebszellen der Zellinie BIR-M1Rk
Format: cell-based, Marshall-Ratten

In the case of `COC(CCOCc1ccccc1)(CCOP(N)(=O)N(CCCl)CCCl)OC` (racemic) [Beispiel 6], the “um den Faktor verringerte Überlebensrate der Krebszellen” value (pH 6) is reported as 10 000 and the Toxizität (pH 7) is reported as “nur eine geringe Toxizität”.
